For one compound, T/C results are on record in US12281118B2, “Nitrogen-containing fused heterocyclic SHP2 inhibitor compound, preparation method, and use” (SHANGHAI RINGENE BIOPHARMA CO., LTD., priority 2018, dated 2025).

In general, T/C refers to the result in the treated group divided by that in the control group, in per cent.

Each structure is given as a SMILES string.

The subject of the experiment is MC38 colorectal cancer xenografts. The experiment can be described thus: Growth inhibition of MC38 colorectal cancer xenografts in C57BL-6 mice. It is filed as in vivo. As to conditions: 1 mg/kg, orally, once daily. An excerpt: Experimental method: 1) Culturing MC38 cells in a culture medium containing 10% fetal bovine serum. […] 2) Subcutaneously inoculating […] tumor cells at the right back of a mouse, and resuspending the cells in PBS and matrigel (1:1); observing tumor growth regularly, and randomizing mice for administration based on tumor size and mouse body weight when tumors grow to a mean volume of ˜50 mm^3-60 mm^3. 3) Defining the day of tumor cell inoculation as Day 0. Prior to the start of dosing, weighing all animals and measuring the tumor volume with a vernier caliper. 3) Administering orally compound of examples (prepared with water for injection containing 1% Tween80 to a desired concentration for use) at a given dose, intraperitoneally injecting an anti-PD-L1 antibody twice a week, for two consecutive weeks, and giving an equal amount of solvent animals in a solvent control group. Measuring diameters of the xenograft twice a week throughout the experiment, and weighing the mice were at the same time.
The calculation formula of tumor volume (TV) is: TV=½×a×b^2, wherein a and b represent length and width, respectively. The relative tumor volume (RTV) is calculated based on the measured results using the formula: RTV=Vt/V0, wherein V0 is the tumor volume measured at the time of dosing in separate cages (i.e., Day 0) and Vt is the tumor volume at each measurement. […]

Turning to `Cc1nc(N2CCC3(CC2)Cc2ccccc2[C@H]3N)n2ccnc2c1Sc1ccnc(N)c1Cl` [Example 1, (S)-1′-(8-((2-amino-3-chloropyridin-4-yl)thio)-7-methylimidazo [1,2-c]pyrimidin-5-yl)-1,3-dihydrospiro [indene-2,4′-piperidine]-1-amine], the T/C came out at 60%.
